# Source: article PMC5636194 (Journal of nanomedicine & nanotechnology, 2017)
# Key:
# T98G cells [1] = assay: Cellular bioenergetics analysis (Seahorse XF24 oxygen consumption); assay type: cell-based
# Protocol: (§1) Assay was performed according to manufacturer’s directions and as previously described, where U87 and T98G cells were plated at 30,000 cells/well in an XF24 plate and allowed to attach overnight. Media was replaced an hour before onset of the assay with XF24 media, and then, rotenone/antimycin A mix, FCCP, and oligomycin were diluted in XF24 media and loaded into the provided cartridge to obtain final concentrations of 100 nM, 300 nM, and 1 µg/mL, respectively. […] Addition of the compounds into the medium took place at designated time points, and oxygen consumption was examined using a Seahorse Bioscience XF24 Extracellular Flux Analyzer.
# U87 cells [2] = assay: as above; assay type: cell-based
# Protocol: as §1
# U87 cells [3] = assay: ATP quantification (luciferase luminescence); assay type: cell-based; details: 10 µM, 24 hours
# Protocol: U87 and T98G cells were seeded into 6-well plates at 200,000 cells/well in 1 mL DMEM high glucose with pyruvate (10% FBS and 1% Pen/Strep) and allowed to grow overnight. […] Following a modified protocol outlined in an ATP kit obtained from Life Technologies, cells were washed twice with PBS, then lysed with 150 uL of ATP assay buffer (500 mM Tricine buffer, pH 7.8, 100 mM MgSO4, 2 mM EDTA, and 2 mM sodium azide) containing 1% Triton X-100, dislodged by scraping with a pipette tip, and transferred to 1.5 mL Eppendorf tubes on ice for 5 minutes. 10 uL of cell lysate was then added in triplicate to a white 96-well plate, also containing ATP standards. Before reading the plate, 100 uL of ATP assay buffer containing 90 µg/mL D-luciferin, 20 µM DTT, and 25 µg/mL Luciferase) was added to each well. Luminescence was calculated using a Tecan Infinite F200 plate reader. Protein concentration was also determined using the Pierce 660 nm Protein Assay (660 nm absorbance), with ATP production standardized to protein values.
# T98G cells [4] = assay: Glucose quantification in medium; assay type: cell-based; details: 10 µM, 48 and 72 hours
# Protocol: Glucose was measured per instructions from a kit manufactured by Sigma-Aldrich. Briefly, 200,000 U87 and T98G cells were seeded into a 6-well plate and incubated overnight. […] After designated times, medium was removed, diluted 1:100 in glucose assay buffer (glucose oxidase, horseradish peroxidase, and O-dianisidine), then added to a 96-well plate at a 1:3 dilution in glucose assay buffer. The plate was then incubated at 37°C and 5% CO2 for 30 minutes, and the reactions halted by the addition of 66 uL of 12 N sulfuric acid. Absorbance values were evaluated at 540 nm on a Biotek Synergy 2 plate reader.
# T98G cells [5] = assay: Cell viability (calcein AM); assay type: cell-based; details: 10 µM
# Protocol: (§2) U87 and T98G cells were seeded at 750 cells/well in 100 µL DMEM high glucose with pyruvate (10% FBS and 1% Pen/Strep) in a black, 96-well flat-bottomed plate, and allowed to attached overnight. […] The next morning, the plates were washed with 200 µL/well 1X PBS, which was removed and replaced with 95 µL calcein AM reagent at 1:1000 dilution in 1X PBS.
# U87 cells [6] = assay: Cell viability (calcein AM); assay type: cell-based
# Protocol: as §2
# T98G cells [7] = assay: Liquid colony formation assay (4 weeks); assay type: cell-based; details: 10 µM
# Protocol: (§3) Cells were seeded into 6-well culture plates (Falcon) at a concentration of 50 cells/well in 1 mL DMEM high glucose with pyruvate (Gibco), 10% FBS, and 1% Pen/Strep. Treatments were added to each well to obtain a pre-determined final concentration in 2 mL/well total volume. Plates were incubated for 4 weeks undisturbed, and only carefully received a media change at week 3 with or without drug treatments if colonies were not visible. Following completion of the 4-week incubation period, colonies were stained as previously described. […] Stained colonies were counted, with the number and size documented.
# U87 cells [8] = assay: Liquid colony formation assay (4 weeks); assay type: cell-based; details: 10 µM
# Protocol: as §3
# [9] = In vivo bio-distribution (LC-MS/MS, noncompartmental PK); design: species or system mice (CD-1); details: female, mouse; CD-1 mice, single IV dose 8 mg/kg, plasma
# Protocol: Female mice (CD-1 background, 5–6 weeks old) were used for all bio-distribution studies. […] Plasma was processed from whole blood by centrifugation of EDTA-treated blood for 10 minutes at 9,600g, then stored at −80°C until analyzed. In addition, kidneys, spleen, lung, liver, and brain were removed, weighed; flash frozen, then homogenized in a 3-fold volume of PBS for further analysis and stored at −80°C. […] Next, 100 µL of each sample (plasma or tissue homogenate) was crashed with 200 µL methanol+0.1% formic acid+50 ng/mL (final concentration) n-benzyl benzamide internal standard, vortexed for 15 seconds, incubated at room temperature for 10 minutes, then centrifuged at 16,000g for 5 minutes at 4°C. 250 µL of supernatant was then transferred to an Eppendorf tube, centrifuged as previously described, then 195 µL of supernatant transferred to an HPLC vial with insert for analysis by HPLC-MS/MS (AB Sciex 3200 QTrap). […] The limit of detection (LOD) was set at the standard concentration providing an analyte signal three-fold above blank matrix. […] Per UTSW’s lab SOPs, samples falling below LOQ and above LOD are assigned a value of ½LOQ. Samples falling below LOQ and LOD are assigned a value of 0.
smiles,measurement,setting,value
"CN(C)c1ccc2nc3ccc(=[N+](C)C)cc-3sc2c1 [MB, methylene blue]",Increase in OCR,T98G cells [1]; 10 µM,1.5 fold
same,Oxygen consumption rate (OCR),T98G cells [1]; 1 and 10 µM,significantly increased
same,Oxygen consumption rate (OCR),U87 cells [2]; 10 µM,significant increase
same,Oxygen consumption rate (OCR),U87 cells [2]; lower treatment concentration (1 µM),not seen
same,ATP levels compared to control,U87 cells [3],increased
same,Sample glucose compared to untreated cells,T98G cells [4],significant increases
same,Initial reduction in cell viability,T98G cells [5]; 24 and 72 hours,25%
same,Additional reduction in cell viability,T98G cells [5]; through […],~ 50%
same,Cell viability over time course,"U87 cells [6]; 10 µM, 24, 72 and […]",did not induce cell death until 72 and 144 hours
same,Cell viability,"U87 cells [6]; 10 µM, 24-hour treatment",increase in cell viability
same,Average colony size compared to control,T98G cells [7],significantly reduced
same,Average number of colonies,T98G cells [7],significantly reduced
same,Average colony size compared to control,U87 cells [8],significantly reduced
same,Average number of colonies,U87 cells [8],reduced
same,AUC,[9],2130 ng·h/mL
